Literature values in patent US5897876A, “Emulsified drug delivery system” (Shire Laboratories Inc., priority 1997, dated 1999).

Tested on: peptide transport
Details: in other vehicles; "known"

Structure (SMILES)	promote peptide transport
CCCCC/C=C\C/C=C\CCCCCCCC(=O)O [linoleic acid]	known to promote peptide transport in other vehicles
CCCCCCCC/C=C\CCCCCCCC(=O)O [oleic acid]	known to promote peptide transport in other vehicles
